The values below come from patent US20120029038A1, “ANIMAL ECTOPARASITE-CONTROLLING AGENT” (SUMITOMO CHEMICAL COMPANY, LIMITED, priority 2010, published 2012).

Type in all cases: in vivo
In experiment [1] the test system is ticks (Haemaphysalis longicornis). As to the kind of experiment: Oral administration against dog-infested ticks. The following applies: oral gelatin capsules, 20 mg/kg. On the procedure:
Each of the present hydrazide compounds (5) and (8) and Comparative compound (52) was filled into gelatin capsules, and forcibly and orally administered to a dog in a dose amount of 20 mg per 1 kg of the dog's body weight. This is referred to as a test group. On the other hand, gelatin capsules alone were orally administered to a placebo group.
Forty two (42) days later, 100 test ticks were deposited on each dog. Two (2) days after the deposit, the number of living ticks, which were infesting the dogs, was examined. When the examination was completed, all infested ticks were removed from the dogs. The infestation rate and control rate were calculated by the following formulae: […]
Method of calculating infestation rate and control rate at 44 days after the administration:
Infestation rate(%) at X days after administration=(number of living ticks at X days/number of ticks deposited)×100
Control rate(%) at X days after administration (infestation rate of placebo group at X days−infestation rate of test group at X days)/infestation rate of placebo group at X days[…]
(§1) In addition, if an infestation rate of a test group is higher than a placebo group, then the control rate is deemed to be 0%.

Experiment [2] concerns cat fleas (Ctenocephalides felis). Kind of experiment: Dropping application against cat-infested cat fleas. On the procedure:
The previous day before dropping application, 50 test fleas (cat flea adults) were deposited on a cat. Before the dropping application, infested fleas were counted.
Each (0.375 g or 1.5 g) of the present hydrazide compounds (5) and (8) and Comparative compound (52) was dissolved in diethylene glycol monoethyl ether (6.0 g) to prepare a test solution. Said test solution was directly dropped on the skin of the neck and back of the cat while pushing aside fur thereon on at a rate of 0.1 ml per 1 kg of the cat's body weight (dose amount: 5 or 20 mg/kg). This is referred to as a test group. On the other hand, diethylene glycol monoethyl ether alone was applied dropwise to a placebo group.
Two (2) days after the application, the number of living fleas, which were infesting the cats, was examined. When the examination was completed, all infested fleas were removed from the cats.
Fourteen (14) days and 28 days later, 50 test fleas were re-deposited on each cat. Two (2) days after the re-deposit, the number of living fleas, which were infesting the cats, was examined. When the examination was completed, all infested fleas were removed from the cats. The infestation rate and control rate were calculated by the following formulae: […]
(§2) (i) Method of calculating infestation rate and control rate at the initial stage (2 days) after the application:
Infestation rate(%) at X days after application=(number of living fleas at X days/number of living fleas before application)×100
(§3) Control rate(%) at X days after application=(infestation rate of test group before application−infestation rate of test group at X days)/infestation rate of test group before application×100
(§4) (ii) Method of calculating infestation rate and control rate at 16 days and 30 days after the application:
Infestation rate(%) at X days after application−(number of living fleas at X days/number of fleas deposited)×100
(§5) Control rate(%) at X days after the application (infestation rate of placebo group at X days−infestation rate of test group at X days)/infestation rate of placebo group at X days×100
as §1

Experiment [3] relates to ticks (Haemaphysalis longicornis). Kind of experiment: Pesticidal activity on ticks in filter paper test. The conditions noted are these: 48 h, 100 mg/m^2, non-blood-fed young ticks, 2 days later. The protocol: Each (5 mg) of the present hydrazide compounds (1), (3) to (5), (8), (10) and (13) was dissolved in acetone (10 mL), and this acetone solution (1 mL) was uniformly applied onto one side of a filter paper (TOYO No. 2; 5×10 cm; the surface area of the filter paper was 50 cm^2, and thus the amount of the present hydrazide compound applied was 100 mg/m^2). After drying, said filter paper was folded, and the both sides of the paper were clipped to form a bag. Into this bag, test ticks (Haemaphysalis longicornis, non-blood-fed young ticks, 10 ticks/group) were added, and the opening was clipped to seal the bag. Two (2) days later, the number of dead ticks was examined and the mortality was calculated by the following formula:
Mortality(%)=100×(number of dead ticks/number of ticks tested)

For experiment [4], the system named is cat fleas (Ctenocephalides felis). As to the kind of experiment: Oral administration against cat-infested cat fleas. The conditions noted are these: oral with cat food. On the procedure:
The previous day before oral administration, 50 test fleas (cat flea adults) were deposited on a cat. Before the oral administration, infested fleas were counted.
Each of the present hydrazide compounds (5) and (8) was mixed with a cat food, and orally administered to a cat in a dose amount of 5 or 20 mg per 1 kg of the cat's body weight. This is referred to as a test group. On the other hand, the cat food alone was fed to a placebo group.
Two (2) days after the administration, the number of living fleas, which were infesting the cats, was examined. When the examination was completed, all infested fleas were removed from the cats.
Forty two (42) days later, 50 test fleas were re-deposited on each cat. Two (2) days after the re-deposit, the number of living fleas, which were infesting the cats, was examined. When the examination was completed, all infested fleas were removed from the cats. The infestation rate and control rate were calculated by the following formulae: […]
(i) Method of calculating infestation rate and control rate at the initial stage (2 days) after the administration:
Infestation rate(%) at X days after administration=(number of living fleas at X days/number of living fleas before administration)×100
Control rate(%) at X days after administration (infestation rate of test group before administration−infestation rate of test group at X days)/infestation rate of test group before administration×100
(ii) Method of calculating infestation rate and control rate at 44 days after the administration:
Infestation rate(%) at X days after administration=(number of living fleas at X days/number of fleas deposited)×100
Control rate(%) at X days after administration (infestation rate of placebo group at X days−infestation rate of test group at X days)/infestation rate of placebo group at X days×100
as §1

Experiment [5] concerns ticks (Haemaphysalis longicornis). Kind of experiment: Dropping application against dog-infested ticks. The conditions noted are these: dog (beagle), 20 mg/kg. On the procedure: The previous day before dropping application, 100 test ticks (Haemaphysalis longicornis, young ticks) were deposited on a dog (beagle). Before the dropping application, infested ticks were counted.
Each (1.5 g) of the present hydrazide compounds (5) and (8) was dissolved in diethylene glycol monoethyl ether (6.0 g) to prepare a test solution. Said test solution was directly dropped on the skin of the neck and back of the dog while pushing aside fur thereon at a rate of 0.1 ml per kg of the dog's body weight (dose amount: 20 mg/kg). This is referred to as a test group. On the other hand, diethylene glycol monoethyl ether alone was applied dropwise to a placebo group.
Two (2) days after the application, the number of living ticks, which were infesting the dogs, was examined. When the examination was completed, all infested ticks were removed from the dogs.
Fourteen (14) days and 28 days later, 100 test ticks were re-deposited on each dog. Two (2) days after the re-deposit, the number of living ticks, which were infesting the dogs, was examined. When the examination was completed, all infested ticks were removed from the dogs. The infestation rate and control rate were calculated by the following formulae: […]
as §2
Infestation rate(%) at X days after application=(number of living ticks at X days/number of living ticks before application)×100
as §3, §4
Infestation rate(%) at X days after application=(number of living ticks at X days/number of ticks deposited)×100
as §5, §1

The subject of experiment [6] is cat fleas (Ctenocephalides felis). Kind of experiment: Pesticidal activity on cat fleas in filter paper test. The conditions noted are these: 48 h. On the procedure:
Each (11.3 mg) of the present hydrazide compounds (5) and (8) was dissolved in acetone (5 mL), and this acetone solution ([…]) was uniformly applied onto one side of a filter paper (TOYO No. 2; diameter 3.8 cm; the surface area of the filter paper was 11.3 cm^2, and thus the amount of the present hydrazide compound applied was 400 mg/m^2). After drying, said filter paper was placed on the inside of the lid of a 100 mL vial container. Into the vial container, 20 cat flea adults were released and the lid was closed. The vial container was inverted to force the cat fleas to contact the filter paper. Two (2) days later, the number of dead fleas was examined and the mortality was calculated by the following formula:
Mortality(%)=100×(number of dead cat fleas/number of cat fleas tested)

`CC(=O)NNc1cc(C2=NOC(c3cc(Cl)cc(Cl)c3)(C(F)(F)F)C2)ccc1Cl` (centres unmarked) [Comparative compound (52), N′-{5-[5-(3,5-dichlorophenyl)-5-trifluoromethyl-4,5-dihydroisoxazol-3-yl]-2-chlorophenyl}acetohydrazide, reference compound]: in experiment [1], the “Tick control rates (%) at 44 days after the administration” value stood at 74%. Besides, in experiment [2] (5 mg/kg), the “Flea control rates (%) at 2 days after the application” value was determined as 25%, the “Flea control rates (%) at 16 days after the application” value (“Flea control rates (%) at 16 days” below) stood at 87% and the “Flea control rates (%) at 30 days after the application” value (“Flea control rates (%) at 30 days” for short) was determined as 58%.

As to `CCc1ccc(C2=NOC(c3cc(Cl)cc(Cl)c3)(C(F)(F)F)C2)cc1NNC(=O)CC(F)(F)F` (centres unmarked) [(13), N′-{5-[5-(3,5-dichlorophenyl)-5-trifluoromethyl-4,5-dihydroisoxazol-3-yl]-2-ethylphenyl}-3,3,3-propionohydrazide], the mortality (commonly the percentage killed) at 100 mg/m2 in experiment [3] was no less than 90%.

As for `O=C(CCCC(F)(F)F)NNc1cc(C2=NOC(c3cc(Cl)cc(Cl)c3)(C(F)(F)F)C2)ccc1Cl` (centres unmarked) [(10), N′-{2-chloro-5-[5-(3,5-dichlorophenyl)-5-trifluoromethyl-4,5-dihydroisoxazol-3-yl]phenyl}-5,5,5-trifluoropentanohydrazide], in experiment [3], the mortality at 100 mg/m2 was no less than 90%.

As for `O=C(CC(F)(F)F)NNc1cccc(C2=NOC(c3cc(Cl)cc(Cl)c3)(C(F)(F)F)C2)c1` (centres unmarked) [(1), N′-{3-[5-(3,5-dichlorophenyl)-5-trifluoromethyl-4,5-dihydroisoxazol-3-yl]phenyl}-3,3,3-trifluoropropionohydrazide], in experiment [3], the mortality at 100 mg/m2 was no less than 90%.

As to `O=C(CC(F)(F)F)NNc1cc(C2=NOC(c3cc(Cl)cc(Cl)c3)(C(F)(F)F)C2)ccc1F` (centres unmarked) [(3), N′-{5-[5-(3,5-dichlorophenyl)-5-trifluoromethyl-4,5-dihydroisoxazol-3-yl]-2-fluorophenyl}-3,3,3-trifluoropropionohydrazide], the mortality at 100 mg/m2 in experiment [3] is no less than 90%.

Consider `O=C(CCC(F)(F)F)NNc1cc(C2=NOC(c3cc(Cl)cc(Cl)c3)(C(F)(F)F)C2)ccc1Cl` (centres unmarked) [Compound (5), N′-{5-[5-(3,5-dichlorophenyl)-5-trifluoromethyl-4,5-dihydroisoxazol-3-yl]-2-chlorophenyl}-4,4,4-trifluorobutyrohydrazide], for which, in experiment [4] (5 mg/kg), the “Flea control rates (%) at 2 days after the administration” value came to 100% and the “Flea control rates (%) at 44 days after the administration” value is on record as 81%. Besides, in experiment [4] (20 mg/kg), the “Flea control rates (%) at 2 days after the administration” value is reported as 100% and the “Flea control rates (%) at 44 days after the administration” value is on record as 100%. Moreover, the “Tick control rates (%) at 2 days after the application” value in experiment [5] (2 days) is 51%. In experiment [5] (16 days), the “Tick control rates (%) at 16 days after the application” value came out at 100%. In addition, the “Tick control rates (%) at 30 days after the application” value in experiment [5] (30 days) amounted to 100%. In experiment [1], the “Tick control rates (%) at 44 days after the administration” value is listed as 89%. This molecule displayed a mortality at 400 mg/m2 in experiment [6] of no less than 90%. Moreover, in experiment [2] (5 mg/kg), the “Flea control rates (%) at 2 days after the application” value is given as 83%, the “Flea control rates (%) at 16 days” value was 100% and the “Flea control rates (%) at 30 days” value is recorded as 97%. Further, in experiment [2] (20 mg/kg), the “Flea control rates (%) at 2 days after the application” value is 100%, the “Flea control rates (%) at 16 days” value came out at 100% and the “Flea control rates (%) at 30 days” value is 100%.
